Data as given in patent US10165779B2, “Substituted pyrazolylpyrazole derivative and use of same as herbicide” (KYOYU AGRI CO., LTD., priority 2015, dated 2019).

Columns and labels:
Assay type in all cases: in vivo
Amaranthus retroflexus [1] = experiment: Farming soil treatment test; details: soil surface spray prior to weed growth, 30 days
Experimental: (§1) Field soil was filled into a 1/6000 are pot followed by seeding with Digitaria cilaris, Chenopodium album and Amaranthus retroflexus and covering with soil.
(§2) Wettable powders of compounds of formula (I) shown in Table 1 prepared in compliance with the preparation examples were diluted. with water to the prescribed amount of chemical and uniformly sprayed onto each soil surface layer using 100 liters of sprayed water per 10 are prior to weed growth following seeding.
(§3) After treating for 30 days in a glass greenhouse at an average atmospheric temperature of 30° C., the herbicidal efficacy thereof was investigated.
(§4) Evaluation of herbicidal efficacy was carried out in the same manner as the above-mentioned Test Example 1.

Digitaria ciliaris [2] = experiment: Farming soil treatment test; details: soil surface spray prior to weed growth, 30 days
Experimental: as §1, §2, §3, §4

Chenopodium album [3] = experiment: Farming soil treatment test; details: soil surface spray prior to weed growth, 30 days
Experimental: as §1, §2, §3, §4

Oryza sativa = experiment: Paddy herbicidal activity test, phytotoxicity to transplanted rice; details: rice transplanted at 2.0 leaf stage, 30 days
Experimental: (§5) After treating for 30 days in a glass greenhouse at an average atmospheric temperature of 30° C., the herbicidal efficacy thereof was investigated. Evaluation of herbicidal efficacy was carried out by comparing growth inhibition rate (%) with an untreated group, while evaluation of phytotoxicity was carried out by comparing growth inhibition rate (%) with the state of a complete eradication group, and were evaluated at 11 levels indicated below. […] 2: 20% to less than 30% 3: 30% to less than 40% 4: 40% to less than 50% 5: 50% to less than 60% 6: 60% to less than 70% 7: 70% to less than 80% […]

Amaranthus retroflexus [4] = experiment: Weed foliar treatment test (Test 3, 1.0 to 2.0 leaf stage); details: foliar spray at 1.0 to 2.0 leaf stage of Digitaria ciliaris, 3 weeks
Experimental: (§6) Soil was filled into a 1/6000 are pot followed by seeding with Digitaria ciliaris, Chenopodium album and Amaranthus retroflexus, covering with soil, and cultivating in a glass greenhouse at an average atmospheric temperature of 25° C.
(§7) Wettable powders of Target Compound (I) shown in Table 1 prepared in compliance with the preparation examples were diluted with water to the prescribed amount of chemical and uniformly sprayed onto the weeds using 150 liters of sprayed water per 10 are when Digitaria ciliaris had grown to the 1.0 to 2.0 leaf stage.
(§8) After treating for 3 weeks in a glass greenhouse at an average atmospheric temperature of 25° C., the herbicidal efficacy thereof was investigated.
as §4

Digitaria ciliaris [5] = experiment: as above; details: foliar spray at 1.0 to 2.0 leaf stage of Digitaria ciliaris, 3 weeks
Experimental: as §6, §7, §8, §4

Chenopodium album [6] = experiment: as above; details: foliar spray at 1.0 to 2.0 leaf stage of Digitaria ciliaris, 3 weeks
Experimental: as §6, §7, §8, §4

Monochoria vaginalis = experiment: Paddy herbicidal activity test; details: irrigated paddy pot, 30 days
Experimental: as §5

Scirpus juncoides = experiment: Paddy herbicidal activity test; details: irrigated paddy pot, 30 days
Experimental: as §5

Echinochloa crus-galli = experiment: Paddy herbicidal activity test; details: irrigated paddy pot, treated at 3.5 leaf stage of Echinochloa crus-galli, 30 days
Experimental: as §5

Digitaria ciliaris [7] = experiment: Weed foliar treatment test (Test 4, 4.0 to 5.0 leaf stage); details: 10 g a.i./10a; foliar spray at 4.0 to 5.0 leaf stage of Digitaria ciliaris (plant height 10 cm to 15 cm); 20 days
Experimental: (§9) Field soil was filled into a 1/4500 are pot followed by seeding with Digitaria ciliaris and Galinsoga parviflora, covering with soil and cultivating in a glass greenhouse at an average atmospheric temperature of 25° C.
as §7, with “100” for “150”, “4.0” for “1.0”, “5.0” for “2.0”, “stage (plant height: 10 cm to 15 cm).” for “stage.”
(§10) After treating for 20 days in a glass greenhouse at an average atmospheric temperature of 25° C., the herbicidal efficacy thereof was investigated.
as §4

Galinsoga parviflora = experiment: as above; details: 10 g a.i./10a; foliar spray at 4.0 to 5.0 leaf stage of Digitaria ciliaris; 20 days
Experimental: as §9
as §7, with “100” for “150”, “4.0” for “1.0”, “5.0” for “2.0”, “stage (plant height: 10 cm to 15 cm).” for “stage.”
as §10, §4

SMILES | herbicidal efficacy Amaranthus retroflexus (Amaranthus retroflexus [1]; 5g a.i./10a) | herbicidal efficacy Amaranthus retroflexus (Amaranthus retroflexus [1]; 10g a.i./10a) | herbicidal efficacy Digitaria ciliaris (Digitaria ciliaris [2]; 5g a.i./10a) | herbicidal efficacy Digitaria ciliaris (Digitaria ciliaris [2]; 10g a.i./10a) | herbicidal efficacy Chenopodium album (Chenopodium album [3]; 5g a.i./10a) | herbicidal efficacy Chenopodium album (Chenopodium album [3]; 10g a.i./10a) | phytotoxicity Oryza sativa (Oryza sativa; 1g a.i./10a) | phytotoxicity Oryza sativa (Oryza sativa; 5g a.i./10a) | herbicidal efficacy Amaranthus retroflexus (Amaranthus retroflexus [4]; 5g a.i./10a) | herbicidal efficacy Amaranthus retroflexus (Amaranthus retroflexus [4]; 10g a.i./10a) | herbicidal efficacy Digitaria ciliaris (Digitaria ciliaris [5]; 5g a.i./10a) | herbicidal efficacy Digitaria ciliaris (Digitaria ciliaris [5]; 10g a.i./10a) | herbicidal efficacy Chenopodium album (Chenopodium album [6]; 5g a.i./10a) | herbicidal efficacy Chenopodium album (Chenopodium album [6]; 10g a.i./10a) | herbicidal efficacy Monochoria vaginalis (Monochoria vaginalis; 1g a.i./10a) | herbicidal efficacy Monochoria vaginalis (Monochoria vaginalis; 5g a.i./10a) | herbicidal efficacy Scirpus juncoides (Scirpus juncoides; 1g a.i./10a) | herbicidal efficacy Scirpus juncoides (Scirpus juncoides; 5g a.i./10a) | herbicidal efficacy Echinochloa crus-galli (Echinochloa crus-galli; 1g a.i./10a) | herbicidal efficacy Echinochloa crus-galli (Echinochloa crus-galli; 5g a.i./10a) | other results
COC(=O)N(C(=O)OC)c1c(C#N)cnn1-c1nn2c(c1Br)CCCC2 [Compound 4] | 10 (10: 100%) | 10 (10: 100%) | 10 (10: 100%) | 10 (10: 100%) | 9 (9: 90% to less than 100%) | 10 (10: 100%) | 0 (0 (exponent): 0% to less than 10% (growth inhibition rate)) | 1 (1: 10% to less than 20%) | 10 (10: 100%) | 10 (10: 100%) | 10 (10: 100%) | 10 (10: 100%) | 10 (10: 100%) | 10 (10: 100%) | 10 (10: 100%) | 10 (10: 100%) | 9 (9: 90% to less than 100%) | 10 (10: 100%) | 10 (10: 100%) | 10 (10: 100%) | herbicidal efficacy Digitaria ciliaris (Digitaria ciliaris [7]): 10 (10: 100%); herbicidal efficacy Galinsoga parviflora (Galinsoga parviflora): 10 (10: 100%)
CCOC(=O)N(C(=O)OCC)c1c(C#N)cnn1-c1nn2c(c1Cl)CCCC2 [Compound 6] | 10 (10: 100%) | 10 (10: 100%) | 10 (10: 100%) | 10 (10: 100%) | 9 (9: 90% to less than 100%) | 10 (10: 100%) | 0 (0 (exponent): 0% to less than 10% (growth inhibition rate)) | 1 (1: 10% to less than 20%) | 10 (10: 100%) | 10 (10: 100%) | 10 (10: 100%) | 10 (10: 100%) | 10 (10: 100%) | 10 (10: 100%) | 10 (10: 100%) | 10 (10: 100%) | 9 (9: 90% to less than 100%) | 10 (10: 100%) | 10 (10: 100%) | 10 (10: 100%) | herbicidal efficacy Digitaria ciliaris (Digitaria ciliaris [7]): 10 (10: 100%); herbicidal efficacy Galinsoga parviflora (Galinsoga parviflora): 10 (10: 100%)
